Reference: publication PMC12320230, “BAY11-7082 Targets RNF25 to Reverse TRIP4 Ubiquitination-dependent NF-κB Activation and Apoptosis Resistance in Renal Cell Carcinoma” (International Journal of Biological Sciences, 2025)

Target: T1, RNF25 (Homo sapiens, UniProt Q96BH1)
T1 construct: His-RNF25 used in ubiquitination assay
T1 sequence (Q96BH1 1-459): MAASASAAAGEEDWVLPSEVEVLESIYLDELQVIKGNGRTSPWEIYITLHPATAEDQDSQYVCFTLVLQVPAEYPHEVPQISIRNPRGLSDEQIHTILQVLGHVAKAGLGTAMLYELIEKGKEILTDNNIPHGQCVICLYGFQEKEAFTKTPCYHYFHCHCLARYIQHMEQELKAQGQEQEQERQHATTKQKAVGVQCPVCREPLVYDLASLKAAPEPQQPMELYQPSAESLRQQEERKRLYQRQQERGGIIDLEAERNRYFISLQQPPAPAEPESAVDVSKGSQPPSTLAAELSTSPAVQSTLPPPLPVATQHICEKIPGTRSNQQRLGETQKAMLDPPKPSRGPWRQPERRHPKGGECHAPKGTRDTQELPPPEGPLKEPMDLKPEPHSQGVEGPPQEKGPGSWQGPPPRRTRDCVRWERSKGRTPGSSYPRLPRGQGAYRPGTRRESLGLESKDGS
Experiment: isothermal titration calorimetry
Assay type: binding

With `Cc1ccc(S(=O)(=O)/C=C/C#N)cc1` [BAY11-7082] the Kd was 950 nM.
